According to US9771369B2, “Compounds and methods for kinase modulation, and indications therefor” (Plexxikon Inc., priority 2014, dated 2017):

Assays:
[1] = system: BaF3-FL KIT D816V or BaF3-FL KIT V560G/D816V cell line; test: Cell-based assays of c-Kit mutant kinase activity (cell proliferation, ATPlite); settings: at least one of the c-kit cell assays of Example 7
Protocol: The c-Kit mutant D816V inhibitors were assessed using an engineered BaF3-FL KIT D816V or BaF3-FL KIT V560G/D816V cell line. The BaF3-FL KIT D816V cell lines were created by introduction of KIT mutant (D816V) full length constructs that render the cells dependent on the introduced kinase for growth. Inhibitors of c-Kit mutant D816V kinase reduce or eliminate the mediated c-kit mutant D816V kinase activation, resulting in reduced cell proliferation of the BaF3-FL Kit mutant D816V cells. This inhibition is measured by the effect of compound concentration on cell growth to assess IC50 values. BaF3-FL KIT D816V cells were seeded at 1×10^4 cells per well of a 96 well cell culture plate in 50 μl of cell culture medium of RPMI Medium 1× (Invitrogen #11875-093) supplemented with 10% FBS (Invitrogen #10438), 1% Non Essential Amino Acids (Invitrogen #11140), 1% Penicillin Streptomycin (Invitrogen #15140), 1% L-Glutamine (Invitrogen #25030-081). Compounds were dissolved in DMSO at a concentration of 5 mM and were serially diluted 1:3 for a total of eight points and added to the cells to a final maximum concentration of 10 μM in 100 μl cell culture medium (final concentration 0.2% DMSO). Cells were also treated with Dasatinib as a positive control. The cells were incubated at 37° C., 5% CO2 for three days. ATPlite Buffer (Perkin Elmer #6016739) and substrate were equilibrated to room temperature, and enzyme/substrate Recombinant Firefly Luciferase/D-Luciferin was reconstituted. The cell plates were equilibrated to room temperature for 30 minutes, then lysed by addition of 25 μL per well of the ATPlite Reagent. The plate was mixed for 5 minutes on a plate shaker to lyse the cells. The plates were read on a Tecan Safire using Luminescence protocol modified to read 0.1s per well. The luminescence reading assesses the ATP content, which correlates directly with cell number such that the reading as a function of compound concentration is used to determine the IC50 value.
Plasmids P75635 and P75565 were engineered for mammalian cell expression. In both plasmids, full-length human v-kit Hardy-Zuckerman 4 feline sarcoma viral oncogene homolog gene (NCBI accession NM_000222, KIT, residues M1-V976) was subcloned into the pCI-Neo vector (Promega E1841). Plasmid P75635 contains the mutation of residue Aspartic acid 816 to Valine. Plasmid P75565 contains the double mutation of residues Valine 560 to Glycine and Aspartic acid 816 to Valine. The pCI-neo Mammalian Expression Vector carries the human cytomegalovirus (CMV) immediate-early enhancer/promoter region to promote constitutive expression of KIT and contains the neomycin phosphotransferase gene, a selectable marker.
It is understood that the results of these assays may vary as assay conditions are varied. Inhibition levels determined under the conditions described herein represent a relative activity for the compounds tested under the specific conditions employed. The cell based assays are likely to show variability due to the complexity of the system and the sensitivity thereof to any changes in the assay conditions. […] In some instances, the compounds were not tested in all of the assays, or assay results were not valid.

[2] = target: c-Kit kinase (Homo sapiens (Human), UniProt P10721); test: c-Kit biochemical assay (AlphaScreen kinase activity)
Chain of c-Kit kinase (P10721 26-976): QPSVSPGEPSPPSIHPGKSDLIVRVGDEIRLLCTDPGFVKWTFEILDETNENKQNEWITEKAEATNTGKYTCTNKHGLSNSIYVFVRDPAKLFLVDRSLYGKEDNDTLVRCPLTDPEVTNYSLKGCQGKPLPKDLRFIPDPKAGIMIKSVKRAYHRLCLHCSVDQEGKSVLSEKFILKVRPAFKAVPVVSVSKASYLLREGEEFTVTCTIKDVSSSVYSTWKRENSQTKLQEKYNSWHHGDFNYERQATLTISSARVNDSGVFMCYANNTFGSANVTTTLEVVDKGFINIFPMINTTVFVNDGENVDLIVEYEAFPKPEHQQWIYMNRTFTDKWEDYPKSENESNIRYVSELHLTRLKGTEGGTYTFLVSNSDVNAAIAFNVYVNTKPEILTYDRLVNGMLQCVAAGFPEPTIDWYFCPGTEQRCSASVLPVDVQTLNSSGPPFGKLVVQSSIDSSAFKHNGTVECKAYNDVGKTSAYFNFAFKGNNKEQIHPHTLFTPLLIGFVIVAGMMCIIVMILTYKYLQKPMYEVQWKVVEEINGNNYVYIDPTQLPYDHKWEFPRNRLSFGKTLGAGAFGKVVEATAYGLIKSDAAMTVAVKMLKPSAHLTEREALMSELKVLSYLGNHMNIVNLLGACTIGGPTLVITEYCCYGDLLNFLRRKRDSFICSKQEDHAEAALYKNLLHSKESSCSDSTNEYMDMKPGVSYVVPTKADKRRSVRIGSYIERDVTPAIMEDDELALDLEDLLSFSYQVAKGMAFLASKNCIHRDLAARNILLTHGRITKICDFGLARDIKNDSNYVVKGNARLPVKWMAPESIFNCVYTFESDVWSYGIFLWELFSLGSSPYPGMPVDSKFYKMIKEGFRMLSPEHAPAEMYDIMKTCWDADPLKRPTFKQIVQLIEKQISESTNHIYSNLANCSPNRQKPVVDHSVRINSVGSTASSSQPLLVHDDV
Protocol: Assays for biochemical cell-based activity of c-kit kinase are known in the art, for example, as described in U.S. Pat. Nos. 7,498,342 and 7,846,941, the disclosures of which are hereby incorporated by reference as it relates to such assays. The c-kit (or kinase domain thereof) is an active kinase in AlphaScreen. IC50 values are determined with respect to inhibition of c-Kit kinase activity, where inhibition of phosphorylation of a peptide substrate is measured as a function of compound concentration. Compounds to be tested were dissolved in DMSO to a concentration of 30 mM. These were diluted 30 μl into 130 μl of DMSO (4 mM) and 1 μl was added to an assay plate. These were then serially diluted 1:3 (50 μl to 100 μl DMSO) for a total of 8 points. Plates were prepared such that each kinase reaction is 30 μl in 1× kinase buffer (50 mM HEPES, pH 7.2, 5 mM MgCl2, 5 mM MnCl2, 0.01% NP-40, 0.2% BSA), 5% DMSO and 10 μM ATP. Substrate was 100 nM biotin-(E4Y)3 (Open Source Biotech, Inc.). C-kit kinase was at 0.1 ng per sample. After incubation of the kinase reaction for 1 hour at room temperature, 5 μl of donor beads (Streptavidin coated beads (Perkin Elmer Life Science) final concentration 1 μg/ml) in stop buffer (50 mM EDTA in 1× kinase buffer) was added, the sample was mixed and incubated for 30 minutes at room temperature before adding […] of acceptor beads (PY30 coated beads (Perkin Elmer Life Science) final concentration 1 μg/ml) in stop buffer. The samples were incubated for 60 minutes at room temperature and the signal per well was read on AlphaQuest reader. Phosphorylated substrate results in binding of the PY30 antibody and association of the donor and acceptor beads such that signal correlates with kinase activity. The signal vs. compound concentration was used to determine the IC50.
Compounds were also tested using a similar assay with a 10-fold higher ATP concentration. For these samples, compounds to be tested were dissolved in DMSO to a concentration of 30 mM. These were diluted 30 μl into 130 μl of DMSO (4 mM) and 1 μl was added to an assay plate. These were then serially diluted 1:3 (50 μl to 100 μl DMSO) for a total of 8 points. Plates were prepared such that each kinase reaction is 30 μl in 1× kinase buffer (25 mM HEPES, pH 7.5, 2 mM MgCl2, 2 mM MnCl2, 0.01% […], 1 mM DTT, and 0.001% BSA), 5% DMSO and 100 μM ATP. Substrate was 30 nM biotin-(E4Y)10 (Upstate Biotech, Cat#12-440). C-kit kinase was at 1 ng per sample. After incubation of the kinase reaction for 1 hour at room temperature, 5 μl of donor beads (Streptavidin coated beads (Perkin Elmer Life Science) final concentration 10 μg/ml) in stop buffer (25 mM HEPES pH 7.5, 100 mM EDTA, 0.3% BSA) was added, the sample was mixed and incubated for 30 minutes at room temperature before adding 5 μl of acceptor beads (PY30 coated beads (Perkin Elmer Life Science) final concentration 10 μg/ml) in stop buffer. The samples were incubated for 60 minutes at room temperature and the signal per well was read on AlphaQuest or Envision reader (Perkin Elmer Life Science). Phosphorylated substrate results in binding of the PY30 antibody and association of the donor and acceptor beads such that signal correlates with kinase activity. The signal vs. compound concentration was used to determine the IC50.
The c-kit enzyme used in the above assay was either obtained from Cell Signaling Technology (Cat. #7754) or was prepared as follows: A plasmid encoding kit (DNA and encoded protein sequences shown below) was engineered using common polymerase chain reaction (PCR) methods. Complementary DNA cloned from various human tissues were purchased from Invitrogen, and these were used as substrates in the PCR reactions. Specific custom synthetic oligonucleotide primers were designed to initiate the PCR product, and also to provide the appropriate restriction enzyme cleavage sites for ligation with the plasmids. […]

Row | Compound | IC50 [1] | IC50 [2]
1 | COc1cc(-c2cc3c(N4CCC(c5nc(C)c(-c6ccc(F)cc6)[nH]5)CC4)ncnc3[nH]2)ccn1 [P-3007, 4-[4-[5-(4-fluorophenyl)-4-methyl-1H-imidazol-2-yl]-1-piperidyl]-6-(2-methoxy-4-pyridyl)-7H-pyrrolo[2,3-d]pyrimidine] | < 10 µM | 1 to 10 µM
2 | COc1cc(-c2cc3c(N4CCC(c5nc(C6CC6)c(-c6ccccc6)[nH]5)CC4)ncnc3[nH]2)ccn1 [P-3008, 4-[4-(4-cyclopropyl-5-phenyl-1H-imidazol-2-yl)-1-piperidyl]-6-(2-methoxy-4-pyridyl)-7H-pyrrolo[2,3-d]pyrimidine] | < 10 µM | 0.0001 to 1 µM
3 | Fc1ccc(-c2cc3c(N4CCC(c5nc(C6CC6)c(-c6ccccc6)[nH]5)CC4)ncnc3[nH]2)cc1 [P-3009, 4-[4-(4-cyclopropyl-5-phenyl-1H-imidazol-2-yl)-1-piperidyl]-6-(4-fluorophenyl)-7H-pyrrolo[2,3-d]pyrimidine] | < 10 µM | 0.0001 to 1 µM
4 | N#Cc1ccc(-c2cc3c(N4CCC(c5nc(C6CC6)c(-c6ccccc6)[nH]5)CC4)ncnc3[nH]2)cc1 [P-3010, 4-[4-[4-(4-cyclopropyl-5-phenyl-1H-imidazol-2-yl)-1-piperidyl]-7H-pyrrolo[2,3-d]pyrimidin-6-yl]benzonitrile] | < 10 µM | 0.0001 to 1 µM
5 | Cc1nc(C2CCN(c3ncnc4[nH]c(-c5ccc(F)cc5)cc34)CC2)[nH]c1-c1cccc(OC(F)(F)F)c1 [P-3011, 6-(4-fluorophenyl)-4-[4-[4-methyl-5-[3-(trifluoromethoxy)phenyl]-1H-imidazol-2-yl]-1-piperidyl]-7H-pyrrolo[2,3-d]pyrimidine] | < 10 µM | 1 to 10 µM
6 | CCOc1cc(-c2[nH]c(C3CCN(c4ncnc5[nH]c(-c6ccc(C#N)cc6)cc45)CC3)nc2C)ccc1C [P-3095, 4-[4-[4-[5-(3-ethoxy-4-methyl-phenyl)-4-methyl-1H-imidazol-2-yl]-1-piperidyl]-7H-pyrrolo[2,3-d]pyrimidin-6-yl]benzonitrile] | < 10 µM | 0.0001 to 1 µM
7 | CCOc1cc(-c2[nH]c(C3CCN(c4ncnc5[nH]c(-c6ccnc(OC)c6)cc45)CC3)nc2C)ccc1C [P-3096, 4-[4-[5-(3-ethoxy-4-methyl-phenyl)-4-methyl-1H-imidazol-2-yl]-1-piperidyl]-6-(2-methoxy-4-pyridyl)-7H-pyrrolo[2,3-d]pyrimidine] | < 10 µM | 0.0001 to 1 µM
8 | Cc1nc(C2CCN(c3ncnc4[nH]c(-c5ccnc(C(F)(F)F)c5)cc34)CC2)[nH]c1-c1ccccc1 [P-3097, 4-[4-(4-methyl-5-phenyl-1H-imidazol-2-yl)-1-piperidyl]-6-[2-(trifluoromethyl)-4-pyridyl]-7H-pyrrolo[2,3-d]pyrimidine] | < 10 µM | 1 to 10 µM
9 | Cc1nc(C2CCN(c3ncnc4[nH]c(-c5cccc(C(F)(F)F)c5)cc34)CC2)[nH]c1-c1ccccc1 [P-3098, 4-[4-(4-methyl-5-phenyl-1H-imidazol-2-yl)-1-piperidyl]-6-[3-(trifluoromethyl)phenyl]-7H-pyrrolo[2,3-d]pyrimidine] | < 10 µM | 1 to 10 µM
10 | CCOc1ccc(-c2[nH]c(C3(C)CCN(c4ncnc5[nH]c(C)cc45)CC3)nc2C)cc1C [P-3099, 4-[4-[5-(4-ethoxy-3-methyl-phenyl)-4-methyl-1H-imidazol-2-yl]-4-methyl-1-piperidyl]-6-methyl-7H-pyrrolo[2,3-d]pyrimidine] | < 10 µM | 0.0001 to 1 µM
11 | CCc1ccc(-c2[nH]c(C3(C)CCN(c4ncnc5[nH]c(C)cc45)CC3)nc2C)cc1 [P-3101, 4-[4-[5-(4-ethylphenyl)-4-methyl-1H-imidazol-2-yl]-4-methyl-1-piperidyl]-6-methyl-7H-pyrrolo[2,3-d]pyrimidine] | < 10 µM | 0.0001 to 1 µM
12 | COc1ccc(-c2[nH]c(C3(C)CCN(c4ncnc5[nH]c(C)cc45)CC3)nc2C)cc1C [P-3102, 4-[4-[5-(4-methoxy-3-methyl-phenyl)-4-methyl-1H-imidazol-2-yl]-4-methyl-1-piperidyl]-6-methyl-7H-pyrrolo[2,3-d]pyrimidine] | < 10 µM | 1 to 10 µM
13 | COc1cc(-c2cc3c(N4CCC(c5nc(C)c(-c6ccc(C)c(OC)c6)[nH]5)CC4)ncnc3[nH]2)ccn1 [P-3104, 4-[4-[5-(3-methoxy-4-methyl-phenyl)-4-methyl-1H-imidazol-2-yl]-1-piperidyl]-6-(2-methoxy-4-pyridyl)-7H-pyrrolo[2,3-d]pyrimidine] | < 10 µM | 10 to 300 µM
14 | COc1cc(-c2[nH]c(C3(C)CCN(c4ncnc5[nH]c(C)cc45)CC3)nc2C)ccc1C [P-3105, 4-[4-[5-(3-methoxy-4-methyl-phenyl)-4-methyl-1H-imidazol-2-yl]-4-methyl-1-piperidyl]-6-methyl-7H-pyrrolo[2,3-d]pyrimidine] | < 10 µM | 1 to 10 µM
15 | COc1cc(-c2[nH]c(C3CCN(c4ncnc5[nH]c(-c6ccc(C#N)cc6)cc45)CC3)nc2C)ccc1C [P-3106, 4-[4-[4-[5-(3-methoxy-4-methyl-phenyl)-4-methyl-1H-imidazol-2-yl]-1-piperidyl]-7H-pyrrolo[2,3-d]pyrimidin-6-yl]benzonitrile] | < 10 µM | 1 to 10 µM
